In PMC10916382, “Repurposing screen identifies novel candidates for broad-spectrum coronavirus antivirals and druggable host targets” (Antimicrobial Agents and Chemotherapy, 2024):
Structures can show the parent of a compound that is named as a salt. Where two headings read alike, the source gives them in different places. Where a SMILES comes first, the peptide text is derived from it. The star is where a group is joined. Cbz = O=C(OCc1ccccc1)*; CHN2 = [N-]=[N+]=C*

Tests used:
HCoV-229E = experiment: microbe, parasite or virus in culture; format: cell-based, Homo sapiens sapiens
Huh-7.5/F-Luc cells = conditions: for % cell viability at max. dose [5 µM]: at max. dose 5 µM
[1] = Calu-3 cells, immunofluorescence imaging
[2] = Huh-7.5 cells, dose series, maximum tested dose 5 µM
[3] = Anti-SARS-CoV-2 screening on Calu-3 cells: viability [% of control], Calu-3 cells
[4] = HCoV 229E infection, dose series, max. dose 5 µM, read-out: IC50

SMILES	IC50 (HCoV-229E; Human coronavirus 229E, Huh7.5) [nM]	Anti-SARS-CoV-2 screening on Calu-3 cells: intracellular SARS-CoV-2 infection measured via immunofluorescence imaging [% of control] (SARS-CoV-2; [1])	CC50 (µM) (Huh-7.5/F-Luc cells; [2])	viability at 48 h, 5 µM (in vitro) [%]	Anti-SARS-CoV-2 screening on Calu-3 cells: viability [% of control] (SARS-CoV-2; Calu-3 cells)	% cell viability at max. dose [5 µM] (Huh-7.5/F-Luc cells) [%]	IC50 (HCoV-229E; [4]) [nM]	other results
CN(C)c1ccc(C(=C2C=CC(=[N+](C)C)C=C2)c2ccc(N(C)C)cc2)cc1 [Gentian violet, reference compound]	120	6.34 % of control	greater than maximum tested dose	101	–	–	–	total cell numbers (SARS-CoV-2; Calu-3 cells, 5 µM, DAPI, relative to DMSO): ≥ 75%; reduction of infected cell numbers (SARS-CoV-2; Calu-3 cells, 5 µM, N protein immunofluorescence, relative to DMSO): more than 50%
COCC(=O)O[C@]1(CCN(C)CCCc2nc3ccccc3[nH]2)CCc2cc(F)ccc2[C@@H]1C(C)C [mibefradil dihydrochloride]	1030	108.00 % of control	greater than maximum tested dose	–	–	–	–	viability (in vitro; [3]): 98.3%
CCN(CC)CCOc1ccc(/C(=C(/Cl)c2ccccc2)c2ccccc2)cc1 [enclomiphene citrate]	–	–	–	102	–	–	–	Anti-SARS-CoV-2 screening on Calu-3 cells: intracellular SARS-CoV-2 infection measured via immunofluorescence imaging [% of control] (SARS-CoV-2): 91.35 % of control; CC50 (µM) (Huh-7.5/F-Luc cells): greater than maximum tested dose
CN(C)CCOc1ccc(/C(=C(/CCCl)c2ccccc2)c2ccccc2)cc1 [TOREMIFENE CITRATE]	1020	114.97 % of control	greater than maximum tested dose	–	–	–	–	viability (in vitro): 95.3%
CC1=C(c2ccc(O)cc2)[C@H](c2ccc(OCCN3CCCCC3)cc2)Oc2cc(O)ccc21 [ACOLBIFENE]	990	111.23 % of control	greater than maximum tested dose	88	–	–	–	–
CNCc1ccc(OC)c([C@@]2(N3CCC[C@H]3c3ncco3)C(=O)N(S(=O)(=O)c3ccc(OC)cc3)c3ccc(Cl)cc32)c1 [RFM-011-199-9]	800	113.08 % of control	greater than maximum tested dose	–	–	–	–	viability (in vitro; [3]): 95.4%
Cc1nc2c(N3CCNCC3)cccc2n1S(=O)(=O)c1ccccc1 [PF-5212377]	1150	99.72 % of control	greater than maximum tested dose	–	–	–	–	viability (in vitro; [3]): 104%
CC(C)CC(NC(=O)OCc1ccccc1)C(=O)NC(C(=O)NCC(=O)C=[N+]=[N-])C(C)C (stereo not drawn) [Z LVG CHN2] (Cbz-Leu-Val-Gly-CHN2; configuration not given here)	–	105.09 % of control	greater than maximum tested dose	–	97.82 % of control	182.31	–	IC50 (HCoV-229E; read-out: IC50): 70 nM
CC(C)c1ccc2c(c1)C(N1CCN(CCO)CC1)Cc1ccc(F)cc1S2 (stereo not drawn) [isofloxythepin]	–	105.07 % of control	greater than maximum tested dose	–	97.70 % of control	141.51	790	–
Oc1ccc2c(c1)CC[C@H](c1ccccc1)[C@H]2c1ccc(OCCN2CCCC2)cc1 [Lasofoxifene tartrate]	–	99.99 % of control	greater than maximum tested dose	–	103.26 % of control	142.22	540	–
CN1CC[C@H](c2c(O)cc(O)c3c(=O)cc(-c4ccccc4Cl)oc23)[C@H](O)C1 [Flavopiridol (Alvocidib)]	–	15.82 % of control	greater than maximum tested dose	–	90.90 % of control	115.14	140	–
CN[C@H]1CC[C@@H](c2ccc(Cl)c(Cl)c2)c2ccccc21 [sertraline hydrochloride]	–	–	–	101	–	–	–	Anti-SARS-CoV-2 screening on Calu-3 cells: intracellular SARS-CoV-2 infection measured via immunofluorescence imaging [% of control] (SARS-CoV-2): 122.16 % of control; CC50 (µM) (Huh-7.5/F-Luc cells): greater than maximum tested dose
Cc1cccc(/C=N/Nc2cc(N3CCOCC3)nc(OCCc3ccccn3)n2)c1 [Target 16/Apilimod mesilate]	–	135.01 % of control	greater than maximum tested dose	–	101.93 % of control	124.74	200	–
